Tests used:
NCI-H460-GFP cells = test: Apoptosis assay (EGFP/FACS) in NCI-H460-GFP cells; assay type: cell-based; conditions: Homo sapiens, data not shown, read-out: EC50, induction of apoptosis
Description: The following human cell line was used: MDA-MB-231 (ATCC: HTB-26). In addition the following enhanced green fluorescent protein (EGFP)-transfected human cell lines were used: NCI-H460 (ATCC: HTB-177) (H460GFP) and Jurkat (ATCC: TIB-152) (JurkatGFP). NCI-H460 and Jurkat cell lines were cultured in RPMI-1640 tissue culture medium containing 10% (v/v) fetal calf serum, 2 mM glutamine, non-essential amino acids and 50 μg/ml penicillin/streptomycin (Complete medium) (Sigma, Buchs, Switzerland). […]
The assays were performed in commercially available sterile 96-well U-bottom or 24-well flat-bottom tissue culture plates (Falcon). […] For time course experiments with Jurkat cells, the 96-well plates were removed shortly at the indicated time from the incubator, shaken in order to suspend the cells and an aliquot of 200 μl cell suspension was then transferred to a 96-well U-bottom plate and measured immediately on a fluorescence-activated cell sorting (FACS)-Canto II with a high through-put sampler (HTS)-module. […]
(§1) The quantification of the relative amount of apoptotic cells within a cell population was determined according to the Reference of Strebel et al., Cytometry 2001, 43(2), Green Fluorescent Protein as Novel Tool to Measure Apoptosis and Necrosis). […] As a readout the relative abundance of the cells belonging to M2 (apoptotic population) were expressed.

A549 = test: Soft agar assay, IC50 of single agents in A549; assay type: cell-based; conditions: Homo sapiens
Description: (§2) Example 5: Determination of Drug Interaction in Cell Lines by Soft Agar Assay
(§3) The combination of BAL101553 with eribulin was tested in various cell lines by soft agar assay. Table 1 and Table 2 present the results according to coefficient of drug interaction based on colony number (Table 1) and total area of colonies (Table 2). In both cases the coefficient of drug interaction is calculated according to the formula described in Zhao et al., J Intercult Ethnopharmacol. 2014, 3(2): 68-72): (combination/untreated)/[(compound1/untreated)×(compound2/untreated)]

Jurkat-GFP cells = test: Apoptosis assay (EGFP/FACS) in Jurkat-GFP cells; assay type: cell-based, human; conditions: data not shown; for EC50: Homo sapiens, read-out: EC50, induction of apoptosis; for maximal apoptosis induction: maximum of dose-response curve
Description: The following human cell line was used: MDA-MB-231 (ATCC: HTB-26). In addition the following enhanced green fluorescent protein (EGFP)-transfected human cell lines were used: NCI-H460 (ATCC: HTB-177) (H460GFP) and Jurkat (ATCC: TIB-152) (JurkatGFP). NCI-H460 and Jurkat cell lines were cultured in RPMI-1640 tissue culture medium containing 10% (v/v) fetal calf serum, 2 mM glutamine, non-essential amino acids and 50 μg/ml penicillin/streptomycin (Complete medium) (Sigma, Buchs, Switzerland). The MDA-MB-231 cell line was cultured in Dulbecco's Modified Eagle Medium (DMEM) (high glucose) tissue culture medium containing 10% (v/v) fetal calf serum, 1 mM sodium pyruvate and 50 μg/ml penicillin/streptomycin (i.e. Complete Medium) (Sigma, Buchs, Switzerland).
General growth conditions were 37° C. and 7.5% CO2. For the microtubule destabilization assay cell lines were cultured in 5% CO2.
The assays were performed in commercially available sterile 96-well U-bottom or 24-well flat-bottom tissue culture plates (Falcon). A defined number of test cells expressing enhanced green fluorescent protein (EGFP) (H460 cells: 600 μl of 30′000 cells/ml in 24-well flat-bottom plates, Jurkat cells: 600 μl of 400′000 cells/ml in […]) were plated either 24 hours before treatment in case of the adherent H460 cell line, or one hour prior to the start of the treatment for Jurkat cells. Between seeding and addition of compounds, the cells were incubated at 37° C. under 7.5% CO2. Subsequently, BAL27862 and eribulin (Halaven®, Ch.-B. 60363CRN1, Eisai) which were dissolved in Complete Medium were both added from stock solutions at 5× the final concentration in 200 μl to the wells, resulting in a final well-volume of 1 ml. The test plates were then incubated for the indicated time. For time course experiments with Jurkat cells, the 96-well plates were removed shortly at the indicated time from the incubator, shaken in order to suspend the cells and an aliquot of 200 μl cell suspension was then transferred to a 96-well U-bottom plate and measured immediately on a fluorescence-activated cell sorting (FACS)-Canto II with a high through-put sampler (HTS)-module. […]
as §1, with “Necrosis). By monitoring the EGFP fluorescence activity excited at […] and measured at […] on a FACS-Cantoll™, it is possible to distinguish between proliferating cells, apoptotic cells and necrotic cells within the same cell population.” for “Necrosis).”

[1] = Pharmacokinetic profile in mouse plasma (LC-MS/MS), single agents vs combination; assay type: in vivo; conditions: non-tumor bearing mice; BAL101553 daily, eribulin every two days to steady state; 10 minutes to 24 hours; FIG. 6
Description: Female NCI Ath/nu non-tumor bearing mice were treated either with BAL101553, eribulin or with a combination of BAL101553 and eribulin where eribulin was administered 30 minutes before BAL101553. Control animals received vehicle control. The mice were dosed until steady state was reached (BAL101553 was dosed daily and eribulin was dosed once every two days, the doses used for the combination-treatment matched those used in the monotherapy). Blood was taken from every animal according to a determined schedule covering a time window of 10 minutes to 24 hours, processed for plasma and subsequently analyzed by LC-MS/MS for the determination of BAL27862 (parent drug of BAL101553) and eribulin concentrations (ng/ml plasma). Data points represent mean values of ng/ml plasma concentration+/−SEM (n=3 animals).
The in vivo combination of BAL101553 with eribulin in the TNBC xenograft model MDA-MB-231 led to a higher proportion of cures or tumor free animals than observed in the single agent treatment groups. […] The mice were either treated with BAL101553, eribulin or the combination thereof, and plasma concentrations of BAL27862 and eribulin at various time points were determined (FIG. 6).

HCC1395 = test: Soft agar assay, IC50 of single agents in HCC1395; assay type: cell-based; conditions: Homo sapiens
Description: as §2, §3

| Compound | EC50 (NCI-H460-GFP cells) [nM] | IC50 (A549) [nM] | EC50 (Jurkat-GFP cells) [nM] | maximal apoptosis induction (Jurkat-GFP cells) | plasma concentrations, single agent vs combination [1] | IC50 (HCC1395) [nM] |
| --- | --- | --- | --- | --- | --- | --- |
| N#CCCNc1nonc1-c1nc2ccccc2n1CC(=O)c1ccc(N)cc1 [BAL27862, 3-(4-{1-[2-(4-Amino-phenyl)-2-oxo-ethyl]-1H-benzoimidazol-2-yl}-furazan-3-ylamino)-propionitrile] | 24 | 25 | 15 | 70-80% | did not change significantly | 10 |
| C=C1C[C@@H]2CC[C@@]34C[C@H]5O[C@H]6[C@@H](O3)[C@H]3O[C@H](CC[C@@H]3O[C@H]6[C@H]5O4)CC(=O)C[C@@H]3[C@@H](OC)[C@@H](C[C@H](O)CN)O[C@H]3C[C@H]3O[C@@H](CC[C@@H]1O2)C[C@@H](C)C3=C.CS(=O)(=O)O [Eribulin, (2R, 3R, 3aS, 7R, 8aS, 9S, 10aR, 11S, 12R, 13aR, 13bS, 15S, 18S, 21S, 24S, 26R, 28R, 29aS)-2-[(2S)-3-Amino-2-hydroxypropyl]-3-methoxy-26-methyl-20,27-dimethylidenehexacosahydro-11,15:18,21:24,28-triepoxy-7,9-ethano-12,15-methano-9H,15H-furo[3,2-i]furo[2′,3′:5,6]pyrano[4,3-b][1,4]dioxacyclopentacosin-5(4H)-one methanesulfonate (salt)] | 1 | 0.25 | 0.8 | about 70% | did not change significantly | 0.5 |

From patent US11419856B2, “Pharmaceutical combinations for use in the treatment of neoplastic diseases” (Basilea Pharmaceutica International AG, priority 2017, dated 2022)
